Drawing on patent US12162858B2, “Quinoline derivatives as inhibitors of AXL/MER RTK and CSF1R” (QURIENT CO., LTD., priority 2018, dated 2024), this text covers Kd for 32 molecules.

One assay concerns the target T1, Mer (Homo sapiens, UniProt Q12866).
T1 construct: purchased Life Technologies
T1 sequence (Q12866 21-999): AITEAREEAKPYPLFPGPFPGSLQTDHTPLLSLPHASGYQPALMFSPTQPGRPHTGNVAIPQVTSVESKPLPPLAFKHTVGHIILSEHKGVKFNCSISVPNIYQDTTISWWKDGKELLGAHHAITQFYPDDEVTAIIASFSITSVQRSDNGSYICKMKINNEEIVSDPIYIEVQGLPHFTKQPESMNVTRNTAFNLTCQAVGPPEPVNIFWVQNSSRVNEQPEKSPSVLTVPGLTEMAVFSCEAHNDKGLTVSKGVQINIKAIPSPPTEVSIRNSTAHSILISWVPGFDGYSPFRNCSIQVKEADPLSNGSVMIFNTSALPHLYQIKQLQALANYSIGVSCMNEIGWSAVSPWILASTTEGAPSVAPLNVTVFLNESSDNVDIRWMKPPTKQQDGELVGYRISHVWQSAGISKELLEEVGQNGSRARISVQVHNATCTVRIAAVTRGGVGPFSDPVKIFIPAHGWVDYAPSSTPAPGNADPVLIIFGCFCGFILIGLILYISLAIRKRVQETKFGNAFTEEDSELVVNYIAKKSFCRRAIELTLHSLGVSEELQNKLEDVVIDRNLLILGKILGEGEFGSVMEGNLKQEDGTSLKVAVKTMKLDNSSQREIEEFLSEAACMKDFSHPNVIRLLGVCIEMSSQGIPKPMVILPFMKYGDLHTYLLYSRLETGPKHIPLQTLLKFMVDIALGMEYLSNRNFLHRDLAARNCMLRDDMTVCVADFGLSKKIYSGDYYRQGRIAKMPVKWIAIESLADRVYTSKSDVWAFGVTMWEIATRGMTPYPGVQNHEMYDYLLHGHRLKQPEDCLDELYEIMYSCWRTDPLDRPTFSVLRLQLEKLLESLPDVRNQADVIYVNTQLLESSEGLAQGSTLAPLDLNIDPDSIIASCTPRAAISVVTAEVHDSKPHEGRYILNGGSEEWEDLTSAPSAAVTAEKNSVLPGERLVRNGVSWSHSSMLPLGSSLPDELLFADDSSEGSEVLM
Nature of the assay: LanthaScreen Eu kinase binding assay for Mer. The following applies: read-out: Mer kinase binding activity (Kd). How it is done: LanthaScreen® Eu Kinase Binding assays were conducted at Life Technologies using the manufacturer's specifications for each kinase indicated.
Briefly, the principle behind this assay is based upon the binding and displacement of an Alexa Fluor 647-labeled tracer to the kinase of interest. Binding of the tracer to the kinase is detected using an EU-labeled anti-tag antibody. Simultaneous binding of both the tracer and antibody to the kinase gives rise to a FRET-signal. Binding of an inhibitor to the kinase competes for binding with the tracer, resulting in a loss of FRET-signal.
A given compound was diluted in DMSO to make a stock compound solution. The stock compound solution was serially diluted over eight steps in DMSO. Each diluted compound solution in DMSO was diluted in kinase buffer. Afterwards four kinds of working solution were prepared. First, Tracer-Working solution consists of Tracer 236 and Kinase Buffer. Second, Axl, Mer, Tyro3 or Met/anti-GST-AB-Working solution contained one of the kinases Axl, and Mer or anti-GST-AB (=anti glutathione-S-transferase antibody) in Kinase Buffer. Third, anti-GST-AB-Working solution was made with anti-GST-AB and Kinase Buffer. Last, in the DMSO-Working solution DMSO was added to Kinase Buffer to a final concentration to 3%. Each of the four kinds of working solutions were separately added to the assay plate and then incubated for 1 h at room temperature. After incubation, the assay plate was measured with respect to the FRET-Signal with the EnVision (Perkin Elmer) using the program LanthaHTRF-Assay. Data evaluation was done in the Quattro Workflow software. Kd (the equilibrium dissociation constant) values were calculated relative to vehicle (DMSO) control wells.
(TR-FRET usually uses a lanthanide donor and a delayed reading to cut background.)

The target of another assay is T2, Axl (Homo sapiens, UniProt P30530).
T2 sequence (P30530 26-894): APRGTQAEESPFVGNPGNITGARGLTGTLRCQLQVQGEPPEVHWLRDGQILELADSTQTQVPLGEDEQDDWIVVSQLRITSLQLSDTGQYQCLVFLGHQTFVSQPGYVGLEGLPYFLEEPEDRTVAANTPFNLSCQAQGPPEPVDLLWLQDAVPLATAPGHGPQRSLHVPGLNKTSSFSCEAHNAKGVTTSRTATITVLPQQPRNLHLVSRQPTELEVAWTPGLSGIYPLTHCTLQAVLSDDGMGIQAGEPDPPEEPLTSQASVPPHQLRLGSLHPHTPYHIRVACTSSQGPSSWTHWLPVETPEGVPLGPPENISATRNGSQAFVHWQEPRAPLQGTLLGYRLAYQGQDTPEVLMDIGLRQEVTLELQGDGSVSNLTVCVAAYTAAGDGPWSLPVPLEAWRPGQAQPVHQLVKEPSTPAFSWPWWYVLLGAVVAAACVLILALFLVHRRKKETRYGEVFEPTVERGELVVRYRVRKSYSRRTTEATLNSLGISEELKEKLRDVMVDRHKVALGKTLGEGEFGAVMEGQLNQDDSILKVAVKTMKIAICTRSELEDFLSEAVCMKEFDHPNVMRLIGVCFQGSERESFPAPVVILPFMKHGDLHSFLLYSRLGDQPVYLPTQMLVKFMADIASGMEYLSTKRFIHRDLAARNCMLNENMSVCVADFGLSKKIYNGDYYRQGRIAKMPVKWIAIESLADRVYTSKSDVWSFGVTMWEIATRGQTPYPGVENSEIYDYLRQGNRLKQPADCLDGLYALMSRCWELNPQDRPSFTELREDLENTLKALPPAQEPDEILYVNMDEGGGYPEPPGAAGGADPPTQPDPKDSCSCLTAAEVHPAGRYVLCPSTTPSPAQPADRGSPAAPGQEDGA
In words: LanthaScreen Eu kinase binding assay for Axl. To be noted: read-out: Axl kinase binding activity (Kd). The gist of the method: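 Kd values come from control-normalized FRET loss, referenced to DMSO vehicle wells, after 1 h at room temperature. Each compound was serially diluted over eight steps in DMSO and competed against Tracer 236 (Alexa Fluor 647) for the kinase, which was tagged by a Eu anti-GST antibody.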

The Kd is the equilibrium constant for the complex coming apart. In the case of `COc1cc2nccc(Oc3ccc(NC(=O)c4nn(CC(C)C)cc4OCC(F)(F)F)cc3F)c2cc1OC` [Compound 53], the Kd on Mer and at Axl was below 100 nM throughout.
`COc1cc2nccc(Oc3ccc(NC(=O)c4nn(C[C@H](C)O)cc4OCC(F)(F)F)nc3)c2cc1OC` [Compound 30]: the Kd at Mer and on Axl was below 100 nM in each case.
In the case of `COc1cc2nccc(Oc3ccc(NC(=O)c4nn(CC(C)O)cc4OCC(F)(F)F)c(F)c3)c2cc1OC` (stereo not shown) [Compound 76], the Kd on Mer and at Axl was below 100 nM in each case.
Regarding `COc1cc2nccc(Oc3ccc(NC(=O)c4nn(C5CCCC5)cc4OCC(F)(F)F)c(F)c3)c2cc1OC` [Compound 47], the Kd at Mer and at Axl was below 100 nM each time.
On to `CCCn1cc(OCC(F)(F)F)c(C(=O)Nc2ccc(Oc3ccnc4cc(OC)c(OC)cc34)cc2C)n1` [Compound 27], for which the Kd at Mer and on Axl was below 100 nM in each case.
For `CCC(=O)n1cc(OCC(F)(F)F)c(C(=O)Nc2ccc(Oc3ccnc4cc(OC)c(OC)cc34)cn2)n1` [Compound 20], the Kd on Mer and at Axl was below 100 nM throughout.
Regarding `COc1cc2nccc(Oc3ccc(NC(=O)c4nn(CCN)cc4OCC(F)(F)F)c(F)c3)c2cc1OC` [Compound 75], the dissociation constant (Kd) at Mer and on Axl was 100 to 500 nM each time.
As to `CCCn1cc(OCCF)c(C(=O)Nc2ccc(Oc3ccnc4cc(OC)c(OC)cc34)cn2)n1` [Compound 14], the Kd on Mer and on Axl was below 100 nM in each case.
For `COc1cc2nccc(Oc3ccc(NC(=O)c4nc(CCC(F)(F)F)oc4CCC4CCC4)nc3)c2cc1OC` [Compound 176], the Kd on Mer and on Axl was 100 to 500 nM in each case.
`COc1cc2nccc(Oc3ccc(NC(=O)c4nn(C5CCOC5)cc4OCC(F)(F)F)cc3)c2cc1OC` (stereo not shown) [Compound 62]: the dissociation constant Kd at Mer and at Axl was below 100 nM each time.
`COc1cc2nccc(Oc3ccc(NC(=O)c4nn(CC5CCCC5)cc4OCC(F)(F)F)nc3)c2cc1OC` [Compound 71]: the Kd at Mer and on Axl was below 100 nM in each case.
Take `COc1cc2nccc(Oc3ccc(NC(=O)c4nn(CC5CC5)cc4OCC(F)(F)F)nc3)c2cc1OC` [Compound 41]: the dissociation constant Kd on Mer and at Axl was below 100 nM throughout.
`COc1cc2nccc(Oc3ccc(NC(=O)c4nn(CC(C)C)cc4OCC(F)(F)F)c(F)c3)c2cc1OC` [Compound 48]: the Kd at Mer and on Axl was below 100 nM each time.
In the case of `COc1cc2nccc(Oc3ccc(NC(=O)c4nn(C5CC5)cc4OCC4CNC4)nn3)c2cc1OC` [Compound 172], the Kd at Mer and at Axl was at least 500 nM in each case.
As to `CCn1nc(C(=O)Nc2ccc(Oc3ccnc4cc(OC)c(OC)cc34)cn2)c(OCC(F)(F)F)c1C` [Compound 1], the Kd at Mer and at Axl was below 100 nM in each case.
For `COc1cc2nccc(Oc3ccc(NC(=O)c4nn(CC5CCCCC5)cc4OCC(F)(F)F)nc3)c2cc1OC` [Compound 43], the Kd at Mer and at Axl was below 100 nM throughout.
Take `COc1cc2nccc(Oc3ccc(NC(=O)c4nn(CC(C)O)cc4OCC4CN(C)C4)nc3)c2cc1OC` (stereo not shown) [Compound 174]: the Kd at Mer and at Axl was at least 500 nM throughout.
With `CCCn1cc(OCC(F)(F)F)c(C(=O)Nc2ccc(Oc3ccnc4cc(OC)c(OC)cc34)c(C)c2)n1` [Compound 26], the Kd at Mer and on Axl was below 100 nM in each case.
Regarding `COc1cc2nccc(Oc3ccc(NC(=O)c4nn(C5CCOC5)cc4OCC(F)(F)F)nc3)c2cc1OC` (stereo not shown) [Compound 13], the dissociation constant Kd at Mer and at Axl was below 100 nM throughout.
For `COc1cc2nccc(Oc3ccc(NC(=O)c4nn(CCO)cc4OCC(F)(F)F)nc3)c2cc1OC` [Compound 67], the Kd at Mer and on Axl was below 100 nM throughout.
On to `COCCn1cc(OCC(F)(F)F)c(C(=O)Nc2ccc(Oc3ccnc4cc(OC)c(OC)cc34)cc2F)n1` [Compound 49], for which the Kd at Mer and at Axl was below 100 nM throughout.
`COc1cc2nccc(Oc3ccc(NC(=O)c4nn(C5CCNC5)cc4OCC(F)(F)F)nc3)c2cc1OC` (stereo not shown) [Compound 70]: the dissociation constant (Kd) on Mer and on Axl was below 100 nM in each case.
On to `COc1cc2nccc(Oc3ccc(NC(=O)c4nn(CCCN)cc4OCC(F)(F)F)nc3)c2cc1OC` [Compound 68], for which the Kd on Mer and at Axl was below 100 nM in each case.
For the molecule `COc1cc2nccc(Oc3ccc(NC(=O)c4nn(CCO)cc4OCC(F)(F)F)cc3F)c2cc1OC` [Compound 51], the Kd on Mer and on Axl was below 100 nM in each case.
As to `COc1cc2nccc(Oc3ccc(NC(=O)c4nn(C(C)(C)C)cc4OCC(F)(F)F)nc3)c2cc1OC` [Compound 22], the dissociation constant (Kd) at Mer and at Axl was below 100 nM throughout.
For `COc1cc2nccc(Oc3ccc(NC(=O)c4nn(CCCO)cc4OCC(F)(F)F)nc3)c2cc1OC` [Compound 18], the Kd at Mer and at Axl was below 100 nM each time.
In the case of `COc1cc2nccc(Oc3ccc(NC(=O)c4nn(CC(C)O)cc4OCC(F)F)nc3)c2cc1OC` (stereo not shown) [Compound 175], the Kd at Mer and at Axl was below 100 nM throughout.
With `CCCn1cc(OC(C)C)c(C(=O)Nc2ccc(Oc3ccnc4cc(OC)c(OC(F)(F)F)cc34)c(F)c2)n1` [Compound 35], the equilibrium dissociation constant (Kd) at Mer and on Axl was at least 500 nM each time.
As to `COc1cc2nccc(Oc3ccc(NC(=O)c4nn(C5CCCC5)cc4OCC(F)(F)F)cc3)c2cc1OC` [Compound 60], the Kd at Mer and on Axl was below 100 nM each time.
For the molecule `COCCOc1cn(C2CC2)nc1C(=O)Nc1ccc(Oc2ccnc3cc(OC)c(OC)cc23)nn1` [Compound 171], the Kd on Mer is 100 to 500 nM; at Axl, below 100 nM.
For `COc1cc2nccc(Oc3ccc(NC(=O)c4nn(C)cc4OCC(F)(F)F)c(F)c3)c2cc1OC` [Compound 45], in that order: below 100 nM and below 100 nM.
For `COc1cc2nccc(Oc3ccc(NC(=O)c4nn(CCO)cc4OCC(F)(F)F)cc3)c2cc1OC` [Compound 59], in that order: below 100 nM and below 100 nM.
